Laboratory results: patent US11465982B2, “Pyridazines” (Boehringer Ingelheim International GmbH, priority 2019, dated 2022)

Key:
[1] = target: Human ATX (Homo sapiens (Human), UniProt Q13822); assay: Assay A: Biochemical ATX Assay; details: 5 nM recombinant ATX, 18:1 LPC substrate, 2-h incubation at room temperature, formation of 18:1 LPA
Procedure: 5 nM recombinant ATX (Cayman Chemicals) was supplemented to 50 mM Tris buffer (pH 8.0) containing 3 mM KCl, 1 mM CaCl2, 1 mM MgCl2 0.14 mM NaCl, and 0.1% bovine serum albumin. Test compounds were dissolved in DMSO and tested in the range of 0.1 nM to 10 μM. The enzymatic reaction (22.5 μL) was started by addition of 2.5 μL 10 μM 18:1 LPC (Avanti Lipids, Alabaster, Ala., USA). After 2-h incubation at room temperature, the reaction was stopped by addition of 20 μL water containing 500 nM 20:4 LPA as internal standard and 100 μL 1-butanol for extracting LPA. Subsequently, the plates were centrifuged at 4000 rpm, 4° C., for 2 min. The resultant upper butanol phase was directly used for injection at a RapidFire system (Agilent).
The RapidFire autosampler was coupled to a binary pump (Agilent 1290) and a Triple Quad 6500 (ABSciex, Toronto, Canada). This system was equipped with a 10-μL loop, 5-μL Waters Atlantis HILIC cartridge (Waters, Elstree, UK), 90% acetonitrile containing 10 mM ammonium acetate as eluent A and 40% acetonitrile containing 10 mM ammoniumacetate as eluent B. For details see (Bretschneider et al., SLAS Discovery, 2017). 1 The MS was operated in negative mode with a source temperature of 550° C., curtain gas=35, gas 1=65, and gas 2=80. The following transitions and MS parameters (DP: declustering potential and CE: collision energy) for the respective LPAs were determined: 18:1 LPA at 435.2/152.8, DP=−40, CE=−28 and 20:4 LPA at 457.2/152.8, DP=−100, CE=−27).
The formation of 18:1 LPA was monitored and evaluated as ratio to 20:4 LPA.

[2] = target: ATX in human whole blood (Homo sapiens (Human), UniProt Q13822); assay: Assay B: Whole-Blood ATX Assay; format: biochemical; details: 1 h at 37° C., formation of 18:2 LPA
Procedure: 45 μL human whole-blood was supplemented with 5 μL of the test compound, dissolved in phosphate-buffered saline (concentration range 0.12 nM-100 μM). This mixture was incubated for 1 h at 37° C. and stopped by addition of 100 μL 40 mM disodium hydrogen phosphate buffer containing 30 mM citric acid (pH 4) and 1 μM 17:0 LPA (internal standard). LPA was extracted by addition of 500 μL 1-butanol, followed by 10-min centrifugation at 4000 rpm, 4° C. Prom the resultant organic supernatant, a 200 μL aliquot was transferred into a 96-deep-well plate and transferred to the RapidPire-based MS/MS measurement.
The RapidPire autosampler was coupled to a binary pump (Agilent 1290) and a Triple Quad 6500 (ABSciex, Toronto, Canada). This system was equipped with a 10-μL loop, 5-μL Waters Atlantis HILIC cartridge (Waters, Elstree, UK), 90% acetonitrile containing 10 mM ammonium acetate as eluent A and 40% acetonitrile containing 10 mM ammoniumacetate as eluent B. For details see (Bretschneider et al., SLAS Discovery, 2017, 22, 425-432). The MS was operated in negative mode with a source temperature of 550° C., curtain gas=35, gas 1=65, and gas 2=80. The following transitions and MS parameters (DP: declustering potential and CE: collision energy) for the respective LPAs were determined: 18:2 LPA at 433.2/152.8, DP=−150, CE=−27 and 17:0 LPA at 423.5/152.8, DP=−100.
The formation of 18:2 LPA was monitored and evaluated as ratio to 17:0 LPA.

[3] = system: plasma LPA; assay: Assay C: In Vivo (plasma LPA reduction after oral application to rats); set-up: species or system rat; details: 5 mg/kg, plasma 8 hours post application, vs baseline, sum of LPA 16:0, 18:0, 18:1, 18:2, 20:4
Procedure: The test substance was solubilized in 0.5% natrosol supplemented with 0.015% Tween 80 for oral application to rats at a dose of 5 mg/kg. Blood samples were collected before compound administration and 8 hours post application on ice using EDTA as coagulation agent. Subsequently, plasma was prepared by centrifugation and stored until analysis at −20° C.
LPAs from plasma samples were extracted by using the procedure described by Scherer et al. (Clinical chemistry 2009, 55, 1218-22). 35 μL of heparinized plasma was mixed with 200 μL 40 mM disodium hydrogen phosphate buffer containing 30 mM citric acid (pH 4) and 1 μM 17:0 LPA (internal standard). Subsequently, 500 μL butanol was added and shaken vigorously for 10 min. Samples were centrifuged afterwards at 4000 rpm, 4° C., for 10 min. 500 μL of the organic upper phase was transferred to a fresh 96-deep-well plate and evaporated with a gentle nitrogen flow of 15 psi for 45 min. The resultant residual was dissolved in 100 μL ethanol prior to LC-MS analysis.
LC-MS Method for the Analytic of In Vivo Samples
A Triple Quad 6500 (ABSciex, Toronto, Canada) was equipped with an Agilent 1290 LC system (Agilent, Santa Clara, Calif.) a CTC autosampler and an Atlantis 50×2.1-mm, 3-μm HILIC LC column (Waters, Elstree, UK). Eluent A contained 0.2% formic acid and 50 mM ammonium formate in water, whereas eluent B consisted of 0.2% formic acid in acetonitrile. […] At 1.8 min, solvent B was set back to 95% and stayed constant for 0.7 min for re-equilibration of the column. The following LPA species were monitored (DP: declustering potential and CE: collision energy): 16:0 LPA at 409.2/152.8, DP=−150, CE=−28; 18:0 LPA at 437.3/152.8, DP=−60, CE=−28; 18:1 LPA at 435.2/152.8, DP=−40, CE=−28; 18:2 LPA at 433.2/152.8, DP=−150, CE=−28; 20:4 LPA at 457.2/152.8, DP=−100, CE=−29 and 17:0 LPA at 423.5/152.8, DP=−100, CE=−36. LPA depletion in percent was calculated based on the baseline LPA levels before test compound application. The sum of LPA refers to the species 16:0; 18:0; 18:1; 18:2 and 20:4

| SMILES | IC50 [1] [nM] | IC50 [2] [nM] | LPA reduction at 8 h [3] [%] |
| --- | --- | --- | --- |
| CN1CC2(CC1=O)CN(c1ccc(CNC(=O)C3(c4ccc(OCc5ccc(C(F)(F)F)nc5)nn4)CC3)cc1)C2 [Example 1.7] | 8.9 | 5.7 |  |
| CN1CC2(CC1=O)CN(c1ccc(CNC(=O)C3(c4ccc(OCc5ccc(C(F)F)nc5)nn4)CC3)cc1)C2 [Example 1.2] | 3.5 | 2.4 | 90.6 |
| CCc1nc2c(C)cc(N3CCN(CC(=O)N4CC(O)C4)CC3)cn2c1N(C)c1nc(-c2ccc(F)cc2)c(C#N)s1 [Example 2 in WO2014/139882, reference compound] |  |  | 58.1 |
| CC(=O)N1CC2(C1)CN(c1ccc(CNC(=O)C3(c4ccc(OCc5ccc(C(F)F)nc5)nn4)CC3)cc1F)C2 [Example 1.26] | 4.1 | 3.9 |  |
| CC(=O)N1CCN(c2ccc(CNC(=O)C3(c4ccc(OCc5ccc(C(F)(F)F)nc5)nn4)CC3)cc2)CC1 [Example 1.12] | 4.3 | 10.2 | 83.9 |
| CC(=O)N1CCN(c2ccc(CNC(=O)C3(c4ccc(OCc5ccc(C(F)(F)F)nc5)nn4)CC3)cc2C(F)(F)F)CC1 [Example 1.15] | 2 | 11.8 |  |
| CC(=O)N1CC2(C1)CN(c1ccc(CNC(=O)C3(c4ccc(OCc5ccc(C(F)F)nc5)nn4)CC3)cc1)C2 [Example 1.4] | 4 | 3.1 | 98.2 |
| CC(=O)N1CCN(c2ccc(CNC(=O)C3(c4ccc(OCc5ccc(C(F)F)nc5)nn4)CC3)cc2)CC1 [Example 1.16] | 3.4 | 5.4 | 95.5 |
| CC(=O)N1CCC2(CC1)CN(c1ccc(CNC(=O)C3(c4ccc(OCc5ccc(C(F)(F)F)nc5)nn4)CC3)cc1)C2 [Example 1.1, N-(4-(7-acetyl-2,7-diazaspiro[3.5]nonan-2-yl)benzyl)-1-(6-((6-(trifluoromethyl)pyridin-3-yl)methoxy)pyridazin-3-yl)cyclopropane-1-carboxamide] | 4 | 3.1 | 93.7 |
| CN1C(=O)NCC12CCN(c1ccc(CNC(=O)C3(c4ccc(OCc5ccc(C(F)(F)F)nc5)nn4)CC3)cc1)CC2 [Example 1.13] | 2.8 | 10.5 |  |
| CC(=O)N1CC2(C1)CN(c1ccc(CNC(=O)C3(c4ccc(OCc5ccc(C(F)(F)F)nc5)nn4)CC3)cc1F)C2 [Example 1.21] | 4.4 | 2.9 | 93.8 |
| CC(=O)N1CCN(c2ccc(CNC(=O)C3(c4ccc(OCc5ccc(C(F)(F)F)nc5)nn4)CC3)cc2)C(C)(C)C1 [Example 1.20] | 4 | 6.7 |  |
| CC(=O)N1CCC2(CC1)CN(c1ccc(CNC(=O)C3(c4ccc(OCc5ccc(C(F)(F)F)nc5)nn4)CC3)cn1)C2 [Example 1.30] | 3.4 | 15.5 |  |
| CC(=O)N1CCN(c2ccc(CNC(=O)C3(c4ccc(OCc5ccc(C(F)(F)F)nc5)nn4)CC3)cc2)CC1(C)C [Example 1.19] | 2.2 | 8.3 |  |
| CC(=O)N1CC2CC1CN2c1ccc(CNC(=O)C2(c3ccc(OCc4ccc(C(F)(F)F)nc4)nn3)CC2)cc1 (centres unmarked) [Example 1.18] | 3.2 | 10.8 |  |
| CC(=O)N1CCN(c2ccc(CNC(=O)C3(c4ccc(OCc5ccc(C(F)(F)F)nc5)nn4)CC3)c(C(F)(F)F)c2)CC1 [Example 1.23] | 3.6 | 4.9 |  |

| SMILES | IC50 [1] [nM] | IC50 [2] [nM] | LPA reduction at 8 h [3] [%] |
| --- | --- | --- | --- |
| CC(=O)N1CCN(c2ccc(CNC(=O)C3(c4ccc(OCc5ccc(C(F)F)nc5)nn4)CC3)c(C(F)(F)F)c2)CC1 [Example 1.22] | 2.5 | 2.5 |  |
| CC(=O)N1CCN(c2ccc(CNC(=O)C3(c4ccc(OCc5ccc(C(F)(F)F)nc5)nn4)CC3)c(F)c2)CC1 [Example 1.5] | 3.8 | 4.2 |  |
| CC(=O)N1CCC2(CC1)CN(c1ccc(CNC(=O)C3(c4ccc(OCc5ccc(C(F)F)nc5)nn4)CC3)nc1)C2 [Example 1.29] | 5.2 | 5.1 |  |
| CC(=O)N1CC2(CCN(c3ccc(CNC(=O)C4(c5ccc(OCc6ccc(C(F)F)nc6)nn5)CC4)cc3)C2)C1 [Example 1.8] | 4.1 | 7.3 | 78.2 |
| CC(=O)N1CCN(c2ccc(CNC(=O)C3(c4ccc(OCc5ccc(C(F)(F)F)nc5)nn4)CC3)cc2F)CC1 [Example 1.6] | 2.4 | 4.7 |  |
| CC(=O)N1CCC12CN(c1ccc(CNC(=O)C3(c4ccc(OCc5ccc(C(F)(F)F)nc5)nn4)CC3)cc1)C2 [Example 1.11] | 2.6 | 10 |  |
| CN1C(=O)NCC12CCN(c1ccc(CNC(=O)C3(c4ccc(OCc5ccc(C(F)F)nc5)nn4)CC3)cc1)CC2 [Example 1.9] | 4.5 | 9.4 |  |
| CC(=O)N1CCC(c2ccc(CNC(=O)C3(c4ccc(OCc5ccc(C(F)(F)F)nc5)nn4)CC3)cc2)CC1 [Example 1.31] | 3.4 | 10.7 |  |
| CC(=O)N1CCC2(C1)CN(c1ccc(CNC(=O)C3(c4ccc(OCc5ccc(C(F)(F)F)nc5)nn4)CC3)cc1)C2 [Example 1.14] | 4.9 | 11.1 |  |
| O=C1CCCN1C1CCN(c2ccc(CNC(=O)C3(c4ccc(OCc5ccc(C(F)(F)F)nc5)nn4)CC3)cc2)CC1 [Example 1.10] | 2.4 | 7 |  |
| CC(=O)N1CCC2(CC1)CN(c1ccc(CNC(=O)C3(c4ccc(OCc5ccc(C(F)F)nc5)nn4)CC3)cc1)C2 [Example 1.3] | 3.7 | 2.8 | 95.0 |
| CC(=O)N1CCN(c2ccc(CNC(=O)C3(c4ccc(OCc5ccc(C(F)F)nc5)nn4)CC3)cn2)CC1 [Example 1.27] |  | 12.1 |  |
| CC(=O)N1CCC2(CC1)CN(c1ccc(CNC(=O)C3(c4ccc(OCc5ccc(C(F)(F)F)nc5)nn4)CC3)nc1)C2 [Example 1.28] | 3.2 | 6.4 |  |
| CC(=O)N1C[C@@H]2CN(c3ccc(CNC(=O)C4(c5ccc(OCc6ccc(C(F)(F)F)nc6)nn5)CC4)cc3)C[C@@H]2C1 [Example 1.25] | 3.2 | 12.4 |  |
| CC(=O)N1C[C@@H]2CN(c3ccc(CNC(=O)C4(c5ccc(OCc6ccc(C(F)F)nc6)nn5)CC4)cc3)C[C@@H]2C1 [Example 1.24] | 3.8 | 4.6 |  |
| CC(=O)N1CC2(C1)CN(c1ccc(CNC(=O)C3(c4ccc(OCc5ccc(C(F)(F)F)nc5)nn4)CC3)cc1)C2 [Example 1.17] | 2.2 | 6.5 | 96.9 |
